The values that follow are results of earlier work, collected in patent EP0918795B1, “ANTIANGIOGENIC DRUG TO TREAT CANCER, ARTHRITIS AND RETINOPATHY” (Abbott Laboratories, priority 1997, dated 2004).

The test system of data set [1] is cultured endothelial cells. The conditions noted are these: inhibition of the migration of cultured endothelial cells.
Data set [2] concerns rat cornea.

No end group written: not given here.

“SPWSSASVTAGDGVITRIR [MalII, 19-mer synthetic peptide mimicking properdin-like repeat region 1 of TSP1]”: the ED50 entry in data set [1] was “about 1 µM”. Further, the “neovascularization in vivo in the rat cornea” value in data set [2] is “blocked neovascularization”.
